Data reported in paper PMC2747106 (Journal of veterinary pharmacology and therapeutics, 2009).
Where a name gives a salt, the structure may show the parent alone. Blank lines part the entries; values can stand above or below the compound they belong to.

Key:
[1] = in vitro
[2] = test system: organic cation transporters (TEA); organic anion transporters (ES); conditions: bovine
[3] = test system: monolayer of BME-UV cells
[4] = test system: organic cation transporters (OCT); assay: Inhibition study: effect of inhibitors on TEA permeation across BME-UV monolayer; assay type: cell-based, bovine; conditions: inhibitor added to donor compartment
[5] = test system: organic anion transporters (OAT); assay: Inhibition study: effect of inhibitors on ES permeation across BME-UV monolayer; assay type: cell-based, bovine; conditions: inhibitor added to donor compartment
[6] = test system: mouse mammary epithelial monolayer; conditions: ref Toddywalla et al., 1997; cited from earlier work
[7] = bovine
[8] = test system: human mammary epithelial monolayer; conditions: ref Kimura et al., 2006; cited from earlier work
[9] = either direction (data not shown)

Papp at 4 h [1]: 122 ± 34 ×10⁻⁶ cm/s | Papp A→B at 4 h, 100 µM [2]: 0.66 ± 0.06 ×10⁻⁶ cm/s | Papp B→A at 4 h, 100 µM [2]: 2.2 ± 0.1 ×10⁻⁶ cm/s
Structure (SMILES): C[C@]12CC[C@@H]3c4ccc(OS(=O)(=O)O)cc4CC[C@H]3[C@@H]1CCC2=O [ES, estrone sulfate]

Structure (SMILES): CC[N+](CC)(CC)CC [TEA, Tetraethylammonium bromide]
Papp at 4 h [1]: 161 ± 18 ×10⁻⁶ cm/s | Papp A→B at 4 h, 100 µM [2]: 2 ± 0.02 ×10⁻⁶ cm/s | Papp B→A at 4 h, 100 µM [2]: 5.1 ± 0.4 ×10⁻⁶ cm/s | permeation rate constant for TEA relative to ES, Ap-to-BL ([3]; Ap-to-BL direction): 3 times | permeation rate constant for TEA relative to ES, BL-to-Ap ([3]; BL-to-Ap direction): 2 times

Structure (SMILES): CCN1C(=Cc2ccc3ccccc3[n+]2CC)C=Cc2ccccc21.[I-] [cyanine, 1,1-Diethyl-2,2-cyanine iodide]
decrease of permeation rate constant of TEA by inhibitor ([4]; BL-to-Ap direction only): approximately 49% | effect of inhibitor on permeation rate constant of ES [5, 9]: not changed significantly

Papp at 4 h, 2 µM [7]: 0.91 ± 0.4 ×10⁻⁶ cm/s
Structure (SMILES): OC[C@@H](O)[C@@H](O)[C@H](O)[C@H](O)CO [mannitol]
Papp of mannitol [6]: 1.94 ×10⁻⁶ cm/s | Papp of mannitol [8]: 2.6 ×10⁻⁶ cm/s

Structure (SMILES): CCCN(CCC)S(=O)(=O)c1ccc(C(=O)O)cc1 [probenecid]
effect of inhibitor on permeation rate constant of TEA [4, 9]: not changed significantly | decrease of permeation rate constant of ES by inhibitor ([5]; BL-to-Ap direction only): approximately 36%
